Like-named read-outs stand apart in the source and are kept apart here. Each block holds one compound with its values, some of them ahead of it.
How the values were obtained:
[1] = Flowability and stickiness of the solid form; format: physicochemical
[2] = Stability of the crystalline form when dried in oven; format: physicochemical; details: e.g. 40° C.
Solubility = format: physicochemical
[3] = Water content of the crystalline form under extreme high humidity; format: physicochemical
[4] = prior-art solid form of WO2018218147; cited from earlier work

flowability [1]: good
stickiness [1]: not sticky
SMILES: CC(C)(CCCCCC(O)CCCCCC(C)(C)C(=O)O)C(=O)O [Form A, 8-Hydroxy-2,2,14,14-tetramethylpentadecanedioic acid]

stability when dried in oven [2]: stable
solubility (Solubility): good
water content change when subjected to extreme high level of humidity ([3]; 70-90% relative humidity): did not change
water absorption or loss when subjected to extreme conditions ([3]; humidity above 70% relative humidity): does not absorb or lose water
SMILES: CC(C)(CCCCCC(O)CCCCCC(C)(C)C(=O)O)C(=O)O [Form B, 8-Hydroxy-2,2,14,14-tetramethylpentadecanedioic acid]

SMILES: CC(C)(CCCCCC(O)CCCCCC(C)(C)C(=O)O)C(=O)O [solid form of Bempedoic acid, 8-Hydroxy-2,2,14,14-tetramethylpentadecanedioic acid]
flow characteristics [4]: poor
stickiness [4]: very sticky

— patent US12528759B2, “Crystalline forms of bempedoic acid” (SYNTHON B.V., priority 2019, dated 2026)
